# Measurements published in EPA's ToxValDB 9.5.
# Tested on: Rattus norvegicus
# Settings: short-term, duration: 28 days, oral, gavage, Sprague-Dawley
structure (smiles),measurement,setting,value
O=S(=O)(O)C(F)(F)C(F)(F)C(F)(F)C(F)(F)F [Perfluorobutanesulfonic acid],LOEL,"F, Clinical chemistry_Alanine aminotransferase",250 mg/kg-day
same,NOEL,"F, Clinical chemistry_Albumin",1000 mg/kg-day
same,NOEL,"F, Clinical chemistry_Albumin/globulin ratio",1000 mg/kg-day
same,LOEL,"F, Clinical chemistry_Alkaline phosphatase",500 mg/kg-day
same,LOEL,"F, Clinical chemistry_Aspartate aminotransferase",500 mg/kg-day
same,LOEL,"F, Clinical chemistry_Cholesterol",500 mg/kg-day
same,LOEL,"F, Clinical chemistry_Direct bilirubin",500 mg/kg-day
same,LOEL,"F, Clinical chemistry_Free thyroxine",62.6 mg/kg-day
same,NOEL,"F, Clinical chemistry_Globulin",1000 mg/kg-day
same,NOEL,"F, Clinical chemistry_Sorbitol dehydrogenase",1000 mg/kg-day
same,NOEL,"F, Clinical chemistry_Testosterone",1000 mg/kg-day
same,NOEL,"F, Clinical chemistry_Thyroid stimulating hormone",1000 mg/kg-day
same,LOEL,"F, Clinical chemistry_Total bile acids",250 mg/kg-day
same,LOEL,"F, Clinical chemistry_Total bilirubin",500 mg/kg-day
same,NOEL,"F, Clinical chemistry_Total protein",1000 mg/kg-day
same,LOEL,"F, Clinical chemistry_Total thyroxine",62.6 mg/kg-day
same,LOEL,"F, Clinical chemistry_Total triiodothyronine",62.6 mg/kg-day
same,NOEL,"F, Clinical chemistry_Triglycerides",1000 mg/kg-day
same,LOEL,"F, Gene expression_Acox1",250 mg/kg-day
same,LOEL,"F, Gene expression_Cyp2b1",62.6 mg/kg-day
same,LOEL,"F, Gene expression_Cyp2b2",62.6 mg/kg-day
same,LOEL,"F, Gene expression_Cyp4a1",62.6 mg/kg-day
same,NOEL,"F, Hematology_Erythrocytes",1000 mg/kg-day
same,NOEL,"F, Hematology_Hematocrit",1000 mg/kg-day
same,NOEL,"F, Hematology_Hemoglobin",1000 mg/kg-day
same,NOEL,"F, Hematology_Leukocytes",1000 mg/kg-day
same,LOEL,"F, Hematology_Reticulocytes",125 mg/kg-day
same,NOEL,"F, Hematology_S. neutrophils",1000 mg/kg-day
same,LOEL,"F, Nonneoplastic effects_Bone marrow - Hypocellularity",1000 mg/kg-day
same,LOEL,"F, Nonneoplastic effects_Kidney - Papilla, necrosis",1000 mg/kg-day
same,LOEL,"F, Nonneoplastic effects_Liver - Hepatocyte, cytoplasmic alteration",500 mg/kg-day
same,LOEL,"F, Nonneoplastic effects_Liver - Hepatocyte, hypertrophy",500 mg/kg-day
same,NOEL,"F, Nonneoplastic effects_Liver - Hepatocyte, vacuolization cytoplasmic",1000 mg/kg-day
same,LOEL,"F, Nonneoplastic effects_Liver - Necrosis",1000 mg/kg-day
same,LOEL,"F, Nonneoplastic effects_Nose - Olfactory epithelium, degeneration",125 mg/kg-day
same,LOEL,"F, Nonneoplastic effects_Nose - Olfactory epithelium, hyperplasia",250 mg/kg-day
same,LOEL,"F, Nonneoplastic effects_Nose - Olfactory epithelium, inflammation, suppurative",1000 mg/kg-day
same,LOEL,"F, Nonneoplastic effects_Nose - Olfactory epithelium, necrosis",1000 mg/kg-day
same,NOEL,"F, Nonneoplastic effects_Spleen - Extramedullary hematopoiesis, decreased",1000 mg/kg-day
same,NOEL,"F, Nonneoplastic effects_Stomach, forestomach - Epithelium, hyperplasia",1000 mg/kg-day
same,LOEL,"F, Nonneoplastic effects_Thymus - Atrophy",1000 mg/kg-day
same,LOEL,"F, Organ weights_Heart - Absolute",500 mg/kg-day
same,NOEL,"F, Organ weights_Heart - Relative",1000 mg/kg-day
same,LOEL,"F, Organ weights_Liver - Absolute",250 mg/kg-day
same,LOEL,"F, Organ weights_Liver - Relative",125 mg/kg-day
same,NOEL,"F, Organ weights_Lung - Absolute",1000 mg/kg-day
same,NOEL,"F, Organ weights_Lung - Relative",1000 mg/kg-day
same,NOEL,"F, Organ weights_R. adrenal gland - Absolute",1000 mg/kg-day
same,NOEL,"F, Organ weights_R. adrenal gland - Relative",1000 mg/kg-day
same,NOEL,"F, Organ weights_R. kidney - Absolute",1000 mg/kg-day
same,LOEL,"F, Organ weights_R. kidney - Relative",62.6 mg/kg-day
same,LOEL,"F, Organ weights_Spleen - Absolute",500 mg/kg-day
same,NOEL,"F, Organ weights_Spleen - Relative",1000 mg/kg-day
same,LOEL,"F, Organ weights_Thymus - Absolute",500 mg/kg-day
same,NOEL,"F, Organ weights_Thymus - Relative",1000 mg/kg-day
same,LOEL,"F, Reproductive toxicity_Altered estrous cyclicity",250 mg/kg-day
same,LOEL,"F, Survival rates",250 mg/kg-day
same,LOEL,"F, body weight",1000 mg/kg-day
same,LOEL,"M, Clinical chemistry_Alanine aminotransferase",500 mg/kg-day
same,NOEL,"M, Clinical chemistry_Albumin",1000 mg/kg-day
same,LOEL,"M, Clinical chemistry_Albumin/globulin ratio",62.6 mg/kg-day
same,LOEL,"M, Clinical chemistry_Alkaline phosphatase",250 mg/kg-day
same,LOEL,"M, Clinical chemistry_Aspartate aminotransferase",500 mg/kg-day
same,LOEL,"M, Clinical chemistry_Cholesterol",62.6 mg/kg-day
same,LOEL,"M, Clinical chemistry_Direct bilirubin",500 mg/kg-day
same,LOEL,"M, Clinical chemistry_Free thyroxine",62.6 mg/kg-day
same,LOEL,"M, Clinical chemistry_Globulin",62.6 mg/kg-day
same,LOEL,"M, Clinical chemistry_Sorbitol dehydrogenase",500 mg/kg-day
same,NOEL,"M, Clinical chemistry_Testosterone",1000 mg/kg-day
same,NOEL,"M, Clinical chemistry_Thyroid stimulating hormone",1000 mg/kg-day
same,LOEL,"M, Clinical chemistry_Total bile acids",500 mg/kg-day
same,NOEL,"M, Clinical chemistry_Total bilirubin",1000 mg/kg-day
same,LOEL,"M, Clinical chemistry_Total protein",62.6 mg/kg-day
same,LOEL,"M, Clinical chemistry_Total thyroxine",62.6 mg/kg-day
same,LOEL,"M, Clinical chemistry_Total triiodothyronine",62.6 mg/kg-day
same,LOEL,"M, Clinical chemistry_Triglycerides",500 mg/kg-day
same,LOEL,"M, Gene expression_Acox1",125 mg/kg-day
same,LOEL,"M, Gene expression_Acyl-CoA oxidase",250 mg/kg-day
same,LOEL,"M, Gene expression_Cyp2b1",62.6 mg/kg-day
same,LOEL,"M, Gene expression_Cyp2b2",62.6 mg/kg-day
same,LOEL,"M, Gene expression_Cyp4a1",62.6 mg/kg-day
same,LOEL,"M, Hematology_Erythrocytes",125 mg/kg-day
same,LOEL,"M, Hematology_Hematocrit",125 mg/kg-day
same,LOEL,"M, Hematology_Hemoglobin",125 mg/kg-day
same,NOEL,"M, Hematology_Leukocytes",1000 mg/kg-day
same,LOEL,"M, Hematology_Reticulocytes",125 mg/kg-day
same,NOEL,"M, Hematology_S. neutrophils",1000 mg/kg-day
same,LOEL,"M, Nonneoplastic effects_Bone marrow - Hypocellularity",1000 mg/kg-day
same,LOEL,"M, Nonneoplastic effects_Kidney - Papilla, necrosis",1000 mg/kg-day
same,LOEL,"M, Nonneoplastic effects_Liver - Hepatocyte, cytoplasmic alteration",500 mg/kg-day
same,LOEL,"M, Nonneoplastic effects_Liver - Hepatocyte, hypertrophy",125 mg/kg-day
same,NOEL,"M, Nonneoplastic effects_Liver - Hepatocyte, vacuolization cytoplasmic",1000 mg/kg-day
same,LOEL,"M, Nonneoplastic effects_Liver - Necrosis",1000 mg/kg-day
same,LOEL,"M, Nonneoplastic effects_Nose - Olfactory epithelium, degeneration",250 mg/kg-day
same,LOEL,"M, Nonneoplastic effects_Nose - Olfactory epithelium, hyperplasia",250 mg/kg-day
same,LOEL,"M, Nonneoplastic effects_Nose - Olfactory epithelium, inflammation, suppurative",1000 mg/kg-day
same,LOEL,"M, Nonneoplastic effects_Nose - Olfactory epithelium, necrosis",1000 mg/kg-day
same,NOEL,"M, Nonneoplastic effects_Spleen - Extramedullary hematopoiesis, decreased",1000 mg/kg-day
same,LOEL,"M, Nonneoplastic effects_Stomach, forestomach - Epithelium, hyperplasia",1000 mg/kg-day
same,LOEL,"M, Nonneoplastic effects_Thymus - Atrophy",1000 mg/kg-day
same,LOEL,"M, Organ weights_Heart - Absolute",500 mg/kg-day
same,LOEL,"M, Organ weights_Heart - Relative",500 mg/kg-day
same,LOEL,"M, Organ weights_Liver - Absolute",125 mg/kg-day
same,LOEL,"M, Organ weights_Liver - Relative",62.6 mg/kg-day
same,NOEL,"M, Organ weights_Lung - Absolute",1000 mg/kg-day
same,NOEL,"M, Organ weights_Lung - Relative",1000 mg/kg-day
same,NOEL,"M, Organ weights_R. adrenal gland - Absolute",1000 mg/kg-day
same,NOEL,"M, Organ weights_R. adrenal gland - Relative",1000 mg/kg-day
same,LOEL,"M, Organ weights_R. kidney - Absolute",500 mg/kg-day
same,LOEL,"M, Organ weights_R. kidney - Relative",500 mg/kg-day
same,NOEL,"M, Organ weights_Spleen - Absolute",1000 mg/kg-day
same,NOEL,"M, Organ weights_Spleen - Relative",1000 mg/kg-day
same,LOEL,"M, Organ weights_Thymus - Absolute",500 mg/kg-day
same,LOEL,"M, Organ weights_Thymus - Relative",500 mg/kg-day
same,NOEL,"M, Reproductive toxicity_Altered sperm parameters",1000 mg/kg-day
same,LOEL,"M, Survival rates",1000 mg/kg-day
same,LOEL,"M, body weight",1000 mg/kg-day
